Legend:
[1] = system: HCVcc; experiment: HCV cell-to-cell spread, foci-size assay with cell-free spread blocked by anti-E2 antibody; format: cell-based, Hepatitis C virus (HCV)
Method: Using an established antibody blocking approach (Timpe, et al. (2008) Hepatology 47:17-24), in which an antibody to the HCV E2 glycoprotein is used to block cell-free virus spread, the role of NPC1L1, CD81, or claudin-1 in cell-to-cell spread was tested. Briefly, subconfluent Huh7 cells were inoculated with HCVcc at a low multiplicity of infection (MOI) of 0.01 ffu/cell for 15 hours to allow sufficient time for initial viral entry into the primary cells (Sabahi, et al. (2010) Virology 407:110-9). Cells were then washed and cell-free virus spread was blocked by addition of an anti-E2 antibody at a concentration which neutralizes extracellular virus infection of cells. In parallel, cultures were co-treated with antibodies to CD81, Claudin-1 or NPC1L1 to determine if blocking of these factors prevents cell-to-cell spread. At seventy two hours post-infection, monolayers were fixed and stained for HCV-positive foci. Spread was determined by the size of the foci, as quantified by the number of cells per foci. Foci composed of 1-2 HCV E2-positive cells, which could have formed via cell division, were scored as infections that had not spread cell-to-cell, and are referred to as one-two cell foci, and represent a baseline for the assay. Foci containing […] cells were scored as infections that had successfully spread cell-to-cell, and are referred to as multicellular foci.
To confirm the role of NPC1L1 in HCV spread and verify that ezetimibe inhibits HCV cell-to-cell spread, Huh7-1 cells were inoculated with HCV JFH-1 at an MOI of 0.01 for 16 hours to allow cell-free entry to initiate infection in a small percentage of cells, before being washed and then incubated with increasing concentrations of ezetimibe. Once again extracellular HCV entry was blocked by the addition of anti-E2 antibody to neutralize cell-free virus in all cultures. […] Cells were fixed at 72 hours post-infection, and then stained to detect the number and the size of the E2-positive foci. The foci were counted and scored as one-two cell foci or as multicellular foci. […] To ensure that multicellular foci were not a result of cell division over the time course of the experiment, the same experiment was repeated in non-growing Huh7-1 cells and similar results were obtained.
Because HCV cell-free spread requires the production and secretion of infectious viral particles from infected cells, an alternative way to block cell-free virus spread is to prevent the release of infectious virus from already infected cells. […] It was of interest to determine whether the VLDL secretory pathway and related virion lipid modifications are required for cell-to-cell spread. […]

[2] = system: intergenotypic HCVcc chimeras; experiment: Cell-to-cell spread of intergenotypic HCVcc chimeras in non-growing Huh7-1 cells; format: cell-based, Hepatitis C virus (HCV)
Description: To determine if ezetimibe might be an effective therapeutic for inhibiting HCV spread of other HCV genotypes, intergenotypic HCVcc chimeras were used, in which the core through E2 region of the JFH-1 clone had been replaced with analogous regions of various HCV genotypes including H77C, J4, J8, ED43, SA13, HK6A and QC69 (Gottwein, et al. (2009) Hepatology 49(2):364-77). Again, to avoid issues of cell division, non-growing Huh7-1 cells were infected with the different chimeric viruses, and after 16 hours, the cells were washed and 0 μM or 30 μM ezetimibe was added to parallel cultures. Since the chimeras encode unique E2 proteins and thus may have differing sensitivity to inhibition by the anti-E2 antibody, in this experiment methyl cellulose was added to all cultures as an alternative means of minimizing cell-free virus spread. Seventy-two hours post-infection, the cells were fixed and stained with an antibody to HCV NS5A to detect the size of the foci formed. In all cases, the size of foci formed by each chimera were reduced in the presence of ezetimibe relative to the mock-treated control culture confirming not only that all of these genotypes use the NPC1L1 receptor for cell-to-cell spread, but that the spread of all the chimeric viruses can be inhibited by ezetimibe.
To determine if naringenin affects spread of any of the other HCV genotypes, non-growing Huh7-1 cells were infected with the different intergenic chimeric viruses and after 16 hours, the cells were washed and naringenin was added. Methyl cellulose was added to each well to prevent cell-free virus spread. In parallel, a control set of wells was treated with methyl cellulose alone. Five days post-infection, the cells were fixed and stained to detect the number of HCV NS5A-positive cells.

Row | SMILES | size of foci ([1]; 30 μM added post-viral inoculation) | number of independent infection initiation events (foci of 1-2 E2-positive cells) ([1]; added post-infection, 24 hours post-infection) | size of the E2-positive foci formed ([1]; increasing concentrations added post-inoculation, 72 hours post-infection) | size of foci formed by each chimera ([2]; 30 μM, methyl cellulose, 72 hours post-infection, relative to mock-treated) | HCV cell-to-cell spread (number and size of foci) ([1]; non-growing Huh7-1 cells, five days post-infection, vs vehicle) | size of foci, J8/JFH-1 (2B/JFH-1) chimera ([2]; J8/JFH-1 chimera) | cell-to-cell spread of chimeric viruses ([2]; all chimeric viruses except J8/JFH-1, five days post-infection)
1 | O=C1[C@H](CC[C@H](O)c2ccc(F)cc2)[C@@H](c2ccc(O)cc2)N1c1ccc(F)cc1 [ezetimibe, 1-(4-fluorophenyl)-(3R)-[3-(4-fluorophenyl)-(3S)-hydroxypropyl]-(45)-(4-hydroxyphenyl)-2-azetidinone] | foci of 1-2 cells | did not block infection | dose-dependent inhibition | reduced |  |  | 
2 | O=C1C[C@@H](c2ccc(O)cc2)Oc2cc(O)cc(O)c21 [naringenin] |  |  |  |  | inhibition of cell-to-cell spread was not detected | reduced the size of foci | not inhibited
